Laboratory results as given in ChEMBL document CHEMBL3526034 (Drug Metab Dispos, 2013).
Blank lines part the entries; values can stand above or below the molecule they belong to.

What was measured:
[1] = Drug level in human urine treated with parent drug [14C]DTG at 20 mg, po; type: ADME, tissue-based; settings: in vivo
Liver microsome [2] = assay: Drug level in human liver microsomes treated with [14C]DTG at 5 uM after 120 mins by radio-HPLC analysis; type: ADME; settings: 2 h
Cytochrome P450 3A4 = Cytochrome P450 3A4 (Homo sapiens, UniProt P08684); assay: Drug level in supersomes expressing human recombinant CYP3A4 treated with [14C]DTG at 5 uM after 120 mins by radio-HPLC analysis; type: ADME; settings: recombinant enzyme, 2 h
Chain of Cytochrome P450 3A4 (P08684 whole entry): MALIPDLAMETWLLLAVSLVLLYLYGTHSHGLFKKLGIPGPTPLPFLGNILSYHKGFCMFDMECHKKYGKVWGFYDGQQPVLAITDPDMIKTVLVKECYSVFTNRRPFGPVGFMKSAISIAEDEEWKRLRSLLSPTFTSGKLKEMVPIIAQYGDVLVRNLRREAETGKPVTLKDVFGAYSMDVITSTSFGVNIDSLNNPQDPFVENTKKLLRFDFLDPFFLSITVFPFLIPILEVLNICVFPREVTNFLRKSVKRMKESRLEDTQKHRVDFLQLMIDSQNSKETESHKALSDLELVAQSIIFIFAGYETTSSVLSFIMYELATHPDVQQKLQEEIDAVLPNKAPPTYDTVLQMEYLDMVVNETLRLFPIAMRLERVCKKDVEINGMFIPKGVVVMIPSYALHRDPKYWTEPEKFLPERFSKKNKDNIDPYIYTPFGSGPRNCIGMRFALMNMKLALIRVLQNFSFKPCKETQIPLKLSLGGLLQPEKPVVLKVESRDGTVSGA

[3] = molecular target: T1, UDP-glucuronosyltransferase 1A1 (Homo sapiens, UniProt P22309); assay: Drug level assessed as UDPGA-fortified human recombinant UGT1A1-mediated compound formation treated with [14C]DTG at 16 uM after 120 mins by radio-HPLC analysis; type: ADME; settings: recombinant enzyme, 2 h
T1 sequence (P22309 whole entry): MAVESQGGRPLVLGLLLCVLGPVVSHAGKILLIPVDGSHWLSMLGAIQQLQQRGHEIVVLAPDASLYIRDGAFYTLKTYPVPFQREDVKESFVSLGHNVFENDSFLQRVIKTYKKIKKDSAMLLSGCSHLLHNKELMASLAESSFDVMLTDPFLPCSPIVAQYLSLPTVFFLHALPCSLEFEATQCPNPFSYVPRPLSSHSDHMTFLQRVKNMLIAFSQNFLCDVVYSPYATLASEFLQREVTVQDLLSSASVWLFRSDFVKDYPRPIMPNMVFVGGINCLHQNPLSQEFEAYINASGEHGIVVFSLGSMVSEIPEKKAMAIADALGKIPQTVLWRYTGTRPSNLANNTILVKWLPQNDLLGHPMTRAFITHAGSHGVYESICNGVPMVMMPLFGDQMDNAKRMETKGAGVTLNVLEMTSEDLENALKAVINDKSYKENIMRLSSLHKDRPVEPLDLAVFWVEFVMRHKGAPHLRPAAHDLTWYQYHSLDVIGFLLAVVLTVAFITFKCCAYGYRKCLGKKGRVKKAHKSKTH

[4] = molecular target: UDP-glucuronosyltransferase 1A3 (Homo sapiens, UniProt P35503); assay: Drug level assessed as UDPGA-fortified human recombinant UGT1A3-mediated compound formation treated with [14C]DTG at 16 uM after 120 mins by radio-HPLC analysis; type: ADME; settings: recombinant enzyme, 2 h
Chain of UDP-glucuronosyltransferase 1A3 (P35503 whole entry): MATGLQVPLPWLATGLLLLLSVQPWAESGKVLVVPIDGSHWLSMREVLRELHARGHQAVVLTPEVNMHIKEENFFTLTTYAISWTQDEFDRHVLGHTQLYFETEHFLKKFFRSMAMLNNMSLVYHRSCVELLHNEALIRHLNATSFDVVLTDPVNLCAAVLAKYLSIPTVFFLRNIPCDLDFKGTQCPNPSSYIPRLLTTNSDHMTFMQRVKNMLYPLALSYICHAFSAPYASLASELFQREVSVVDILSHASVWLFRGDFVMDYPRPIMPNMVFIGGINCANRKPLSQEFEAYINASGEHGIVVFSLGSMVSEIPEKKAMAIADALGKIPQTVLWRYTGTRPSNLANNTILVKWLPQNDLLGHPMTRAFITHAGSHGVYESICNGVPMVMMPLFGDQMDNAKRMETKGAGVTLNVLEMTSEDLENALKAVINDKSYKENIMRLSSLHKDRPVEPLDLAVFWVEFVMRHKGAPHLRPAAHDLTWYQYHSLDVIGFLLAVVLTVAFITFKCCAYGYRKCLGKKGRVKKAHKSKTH

Liver microsome [5] = assay: Drug level in UDPGA-fortified human liver microsomes treated with [14C]DTG at 16 uM treated for 4 hrs by radio-HPLC analysis; type: ADME
Hepatocyte = assay: Drug level in human hepatocytes treated with [14C]DTG at 50 uM after 4 to 20 hrs by radio-HPLC analysis; type: ADME, cell-based
[6] = molecular target: UDP-glucuronosyltransferase 1A9 (Homo sapiens, UniProt O60656); assay: Drug level assessed as UDPGA-fortified human recombinant UGT1A9-mediated compound formation treated with [14C]DTG at 16 uM after 120 mins by radio-HPLC analysis; type: ADME; settings: recombinant enzyme, 2 h
Chain of UDP-glucuronosyltransferase 1A9 (O60656 whole entry): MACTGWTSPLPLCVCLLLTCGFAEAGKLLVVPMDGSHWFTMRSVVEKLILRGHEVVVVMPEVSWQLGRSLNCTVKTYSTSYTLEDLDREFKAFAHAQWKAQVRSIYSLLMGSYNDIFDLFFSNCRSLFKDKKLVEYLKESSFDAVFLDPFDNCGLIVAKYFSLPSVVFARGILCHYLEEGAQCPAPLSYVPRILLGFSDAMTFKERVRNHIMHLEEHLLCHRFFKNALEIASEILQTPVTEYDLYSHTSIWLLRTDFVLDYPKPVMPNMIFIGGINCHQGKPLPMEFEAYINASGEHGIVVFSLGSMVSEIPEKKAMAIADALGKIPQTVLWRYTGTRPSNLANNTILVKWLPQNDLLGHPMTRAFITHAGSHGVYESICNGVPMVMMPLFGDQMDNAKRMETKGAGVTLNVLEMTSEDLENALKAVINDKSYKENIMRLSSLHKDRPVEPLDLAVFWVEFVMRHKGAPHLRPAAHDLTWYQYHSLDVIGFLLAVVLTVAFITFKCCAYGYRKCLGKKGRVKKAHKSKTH

[7] = substrate: C[C@@H]1CCO[C@H]2Cn3cc(C(=O)NCc4ccc(F)cc4F)c(=O)c(O)c3C(=O)N12; assay: Drug metabolism in UDPGA-fortified human liver microsomes assessed as UGT1A1-mediated DTG glucuronide M2 ((2S,3S,4S,5R,6S)-6-((4R,12aS)-9-(2,4-difluorobenzylcarbamoyl)-4-methyl-6,8-dioxo-3,4,6,8,12,12a-hexahydro-2H-[1,3]oxazino[3,2-d]pyrido[1,2-a]pyrazin-7-yloxy)-3,4,5-trihydroxytetrahydro-2H-pyran-2-carboxylic acid) formation after 120 mins by radio-HPLC analysis; type: ADME
[8] = substrate: C[C@@H]1CCO[C@H]2Cn3cc(C(=O)NCc4ccc(F)cc4F)c(=O)c(O)c3C(=O)N12; assay: Drug metabolism assessed as human recombinant UGT1A1-mediated DTG glucuronide M2 ((2S,3S,4S,5R,6S)-6-((4R,12aS)-9-(2,4-difluorobenzylcarbamoyl)-4-methyl-6,8-dioxo-3,4,6,8,12,12a-hexahydro-2H-[1,3]oxazino[3,2-d]pyrido[1,2-a]pyrazin-7-yloxy)-3,4,5-trihydroxytetrahydro-2H-pyran-2-carboxylic acid) formation after 120 mins by radio-HPLC analysis; type: ADME

Drug excretion [1]: 3%
Drug metabolism (Liver microsome [2]): metabolite_detected
Molecule: C[C@@H]1CCO[C@H]2Cn3cc(C(=O)NC(O)c4ccc(F)cc4F)c(=O)c(O)c3C(=O)N12 (some centres not stated)

Drug metabolism (Cytochrome P450 3A4): metabolite_detected
Drug excretion [1]: 3.6%
Molecule: C[C@@H]1CCO[C@H]2Cn3cc(C(N)=O)c(=O)c(O)c3C(=O)N12

Drug metabolism [3]: metabolite_detected
Drug metabolism [4]: metabolite_detected
Drug excretion [1]: 18.9%
Drug metabolism (Liver microsome [5]): metabolite_detected
Drug metabolism (Hepatocyte): metabolite_detected
Drug metabolism [6]: metabolite_detected
Molecule: C[C@@H]1CCO[C@H]2Cn3cc(C(=O)NCc4ccc(F)cc4F)c(=O)c(O[C@@H]4O[C@H](C(=O)O)[C@@H](O)[C@H](O)[C@H]4O)c3C(=O)N12

B1: UDP-glucuronosyltransferase 1A1 (Homo sapiens) (protein)
chain: T1 sequence (P22309 whole entry)
Km [7]: 149 µM
Km [8]: 21 µM
